Among the data in ChEMBL document CHEMBL3991601, “The target landscape of clinical kinase drugs” (Science, 2017) are Kd values, retold here.

In assay [1] the target is T1, Mitogen-activated protein kinase 15 (Homo sapiens, UniProt Q8TD08).
T1 sequence (Q8TD08 whole entry): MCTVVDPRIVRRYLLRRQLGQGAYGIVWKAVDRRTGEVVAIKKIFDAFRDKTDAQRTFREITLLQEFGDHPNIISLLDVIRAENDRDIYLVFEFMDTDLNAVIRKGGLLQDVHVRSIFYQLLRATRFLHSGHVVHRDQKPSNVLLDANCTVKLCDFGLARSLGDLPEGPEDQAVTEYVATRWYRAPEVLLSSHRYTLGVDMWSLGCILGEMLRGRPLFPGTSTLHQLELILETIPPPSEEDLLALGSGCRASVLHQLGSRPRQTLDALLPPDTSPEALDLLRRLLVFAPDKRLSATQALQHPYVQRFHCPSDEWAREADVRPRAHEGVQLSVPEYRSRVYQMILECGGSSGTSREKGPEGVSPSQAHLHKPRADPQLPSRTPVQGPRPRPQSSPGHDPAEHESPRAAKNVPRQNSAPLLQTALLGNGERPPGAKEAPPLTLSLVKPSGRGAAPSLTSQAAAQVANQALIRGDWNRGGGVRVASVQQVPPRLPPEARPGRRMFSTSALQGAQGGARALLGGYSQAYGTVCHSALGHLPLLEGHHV

For assay [2], the target named is Mitogen-activated protein kinase 3 (Homo sapiens, UniProt P27361).
Chain of Mitogen-activated protein kinase 3 (P27361 whole entry): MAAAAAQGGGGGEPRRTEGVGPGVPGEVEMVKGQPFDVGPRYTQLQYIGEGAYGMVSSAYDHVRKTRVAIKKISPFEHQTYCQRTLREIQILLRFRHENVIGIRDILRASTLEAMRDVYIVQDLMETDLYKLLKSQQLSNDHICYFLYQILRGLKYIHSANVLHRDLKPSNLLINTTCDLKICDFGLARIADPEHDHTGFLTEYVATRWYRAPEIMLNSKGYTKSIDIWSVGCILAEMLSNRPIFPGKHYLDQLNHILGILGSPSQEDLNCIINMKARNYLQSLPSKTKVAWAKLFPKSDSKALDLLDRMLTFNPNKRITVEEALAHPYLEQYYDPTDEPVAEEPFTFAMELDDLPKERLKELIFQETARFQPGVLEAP
Assay [3] addresses T2, cGMP-dependent protein kinase 1 (Homo sapiens, UniProt Q13976).
T2 sequence (Q13976 whole entry): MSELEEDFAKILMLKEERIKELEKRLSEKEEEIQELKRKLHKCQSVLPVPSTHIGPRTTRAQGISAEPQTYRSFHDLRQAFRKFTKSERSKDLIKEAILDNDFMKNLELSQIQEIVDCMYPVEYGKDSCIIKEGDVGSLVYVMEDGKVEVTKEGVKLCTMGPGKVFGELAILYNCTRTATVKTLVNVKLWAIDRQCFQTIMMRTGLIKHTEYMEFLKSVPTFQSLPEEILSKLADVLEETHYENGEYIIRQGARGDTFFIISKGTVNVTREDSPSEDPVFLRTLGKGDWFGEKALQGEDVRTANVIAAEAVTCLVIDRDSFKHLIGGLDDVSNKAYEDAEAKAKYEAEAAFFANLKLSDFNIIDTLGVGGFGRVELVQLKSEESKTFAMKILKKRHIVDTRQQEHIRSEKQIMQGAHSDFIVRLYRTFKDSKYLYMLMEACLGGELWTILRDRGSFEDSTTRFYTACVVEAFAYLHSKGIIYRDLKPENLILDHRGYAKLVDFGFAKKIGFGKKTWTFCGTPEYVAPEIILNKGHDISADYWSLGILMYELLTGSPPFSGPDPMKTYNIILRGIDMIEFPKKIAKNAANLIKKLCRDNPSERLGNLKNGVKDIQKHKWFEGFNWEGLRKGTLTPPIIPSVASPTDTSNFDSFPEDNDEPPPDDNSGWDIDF

In assay [4] the target is Ribosomal protein S6 kinase alpha-1 (Homo sapiens, UniProt Q15418).
Chain of Ribosomal protein S6 kinase alpha-1 (Q15418 whole entry): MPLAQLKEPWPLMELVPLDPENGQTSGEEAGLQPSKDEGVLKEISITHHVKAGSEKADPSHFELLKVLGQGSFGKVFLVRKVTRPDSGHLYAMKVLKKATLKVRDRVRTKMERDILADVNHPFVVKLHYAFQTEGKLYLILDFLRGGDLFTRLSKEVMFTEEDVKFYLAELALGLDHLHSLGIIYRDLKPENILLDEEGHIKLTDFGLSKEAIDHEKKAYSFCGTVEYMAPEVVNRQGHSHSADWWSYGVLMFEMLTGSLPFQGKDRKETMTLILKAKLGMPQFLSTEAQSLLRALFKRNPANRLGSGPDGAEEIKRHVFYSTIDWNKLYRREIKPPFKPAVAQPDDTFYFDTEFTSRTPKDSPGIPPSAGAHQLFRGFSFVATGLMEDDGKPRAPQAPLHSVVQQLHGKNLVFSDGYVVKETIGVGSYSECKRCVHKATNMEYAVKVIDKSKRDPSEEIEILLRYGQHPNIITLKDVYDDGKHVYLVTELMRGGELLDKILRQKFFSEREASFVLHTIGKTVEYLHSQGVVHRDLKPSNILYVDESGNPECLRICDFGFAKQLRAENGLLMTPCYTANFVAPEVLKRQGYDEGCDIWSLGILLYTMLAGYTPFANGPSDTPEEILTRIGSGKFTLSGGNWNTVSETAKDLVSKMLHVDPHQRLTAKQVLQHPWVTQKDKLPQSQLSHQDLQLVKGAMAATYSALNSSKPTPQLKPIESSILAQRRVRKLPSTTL
The next assay concerns the target Adenosine kinase (Homo sapiens, UniProt P55263).
A further assay addresses T3, Glycine--tRNA ligase (Homo sapiens, UniProt P41250).
T3 sequence (P41250 whole entry): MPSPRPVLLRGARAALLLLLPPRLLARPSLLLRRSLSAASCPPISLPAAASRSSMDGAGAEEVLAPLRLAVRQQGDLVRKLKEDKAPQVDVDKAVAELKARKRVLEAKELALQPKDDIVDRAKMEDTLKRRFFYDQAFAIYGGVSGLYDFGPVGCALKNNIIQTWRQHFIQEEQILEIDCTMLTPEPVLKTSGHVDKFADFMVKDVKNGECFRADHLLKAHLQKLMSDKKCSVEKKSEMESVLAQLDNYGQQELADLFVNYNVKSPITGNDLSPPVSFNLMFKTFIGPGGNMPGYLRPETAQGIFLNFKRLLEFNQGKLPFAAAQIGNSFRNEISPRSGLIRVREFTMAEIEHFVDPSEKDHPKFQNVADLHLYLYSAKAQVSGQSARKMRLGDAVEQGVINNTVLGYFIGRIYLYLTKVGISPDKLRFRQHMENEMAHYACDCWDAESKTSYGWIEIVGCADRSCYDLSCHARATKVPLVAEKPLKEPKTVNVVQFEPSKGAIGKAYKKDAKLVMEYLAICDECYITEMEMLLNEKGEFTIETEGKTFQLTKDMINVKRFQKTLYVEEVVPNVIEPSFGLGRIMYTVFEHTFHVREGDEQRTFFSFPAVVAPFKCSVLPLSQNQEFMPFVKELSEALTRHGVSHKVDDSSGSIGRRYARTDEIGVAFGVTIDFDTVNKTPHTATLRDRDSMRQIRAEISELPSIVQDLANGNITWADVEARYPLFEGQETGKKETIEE

Assay [5] concerns the target Serine/threonine-protein kinase B-raf (Homo sapiens, UniProt P15056).
The target in the next assay is Midasin (Homo sapiens, UniProt Q9NU22).
In assay [6] the target is Fibroblast growth factor receptor 1 (Homo sapiens, UniProt P11362).
Chain of Fibroblast growth factor receptor 1 (P11362 whole entry): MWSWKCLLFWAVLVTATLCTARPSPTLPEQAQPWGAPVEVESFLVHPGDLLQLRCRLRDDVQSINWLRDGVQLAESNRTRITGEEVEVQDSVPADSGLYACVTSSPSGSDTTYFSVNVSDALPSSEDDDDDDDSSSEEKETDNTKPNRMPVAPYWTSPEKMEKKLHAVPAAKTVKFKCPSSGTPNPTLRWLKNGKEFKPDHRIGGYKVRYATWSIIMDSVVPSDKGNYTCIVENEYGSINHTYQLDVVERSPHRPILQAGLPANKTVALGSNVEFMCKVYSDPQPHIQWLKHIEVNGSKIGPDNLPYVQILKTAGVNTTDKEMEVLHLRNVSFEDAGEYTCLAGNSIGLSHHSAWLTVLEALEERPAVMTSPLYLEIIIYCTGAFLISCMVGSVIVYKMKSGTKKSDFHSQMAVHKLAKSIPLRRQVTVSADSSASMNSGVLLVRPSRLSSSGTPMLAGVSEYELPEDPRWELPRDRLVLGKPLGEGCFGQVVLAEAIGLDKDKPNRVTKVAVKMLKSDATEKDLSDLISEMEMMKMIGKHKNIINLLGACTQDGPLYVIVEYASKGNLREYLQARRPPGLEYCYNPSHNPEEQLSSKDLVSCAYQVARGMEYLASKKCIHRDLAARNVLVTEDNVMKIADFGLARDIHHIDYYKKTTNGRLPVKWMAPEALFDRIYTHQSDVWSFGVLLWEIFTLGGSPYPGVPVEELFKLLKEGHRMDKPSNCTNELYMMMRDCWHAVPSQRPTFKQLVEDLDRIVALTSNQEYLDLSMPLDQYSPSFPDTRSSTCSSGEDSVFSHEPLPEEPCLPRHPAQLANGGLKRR
Assay [7] concerns the target Dual specificity tyrosine-phosphorylation-regulated kinase 1A (Homo sapiens, UniProt Q13627).

Calls of active or inactive are those of the source. A value given as a limit tells only on which side of the number the result lay.
Further: in the data inactive means no Kd found up to 30 µM.

Chain of Serine/threonine-protein kinase B-raf (P15056 whole entry): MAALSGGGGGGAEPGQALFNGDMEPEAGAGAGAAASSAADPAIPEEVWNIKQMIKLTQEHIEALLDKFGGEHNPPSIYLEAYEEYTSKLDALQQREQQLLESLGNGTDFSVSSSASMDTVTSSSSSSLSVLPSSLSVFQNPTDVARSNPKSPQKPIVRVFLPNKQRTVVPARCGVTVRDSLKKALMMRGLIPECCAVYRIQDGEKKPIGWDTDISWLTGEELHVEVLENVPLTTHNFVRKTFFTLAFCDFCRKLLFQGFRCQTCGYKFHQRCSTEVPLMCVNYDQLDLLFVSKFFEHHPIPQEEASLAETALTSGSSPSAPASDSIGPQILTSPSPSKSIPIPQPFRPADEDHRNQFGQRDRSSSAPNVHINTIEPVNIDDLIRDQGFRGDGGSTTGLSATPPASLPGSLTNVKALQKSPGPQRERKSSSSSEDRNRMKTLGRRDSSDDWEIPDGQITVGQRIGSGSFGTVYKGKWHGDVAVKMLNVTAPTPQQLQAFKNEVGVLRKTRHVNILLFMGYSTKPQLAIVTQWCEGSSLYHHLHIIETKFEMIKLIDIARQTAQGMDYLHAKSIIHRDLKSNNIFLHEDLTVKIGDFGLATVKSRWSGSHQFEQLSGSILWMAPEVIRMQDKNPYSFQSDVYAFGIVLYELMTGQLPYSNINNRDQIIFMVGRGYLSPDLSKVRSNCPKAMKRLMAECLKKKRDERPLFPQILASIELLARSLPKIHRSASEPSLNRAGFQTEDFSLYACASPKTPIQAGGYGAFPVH
Chain of Adenosine kinase (P55263 whole entry): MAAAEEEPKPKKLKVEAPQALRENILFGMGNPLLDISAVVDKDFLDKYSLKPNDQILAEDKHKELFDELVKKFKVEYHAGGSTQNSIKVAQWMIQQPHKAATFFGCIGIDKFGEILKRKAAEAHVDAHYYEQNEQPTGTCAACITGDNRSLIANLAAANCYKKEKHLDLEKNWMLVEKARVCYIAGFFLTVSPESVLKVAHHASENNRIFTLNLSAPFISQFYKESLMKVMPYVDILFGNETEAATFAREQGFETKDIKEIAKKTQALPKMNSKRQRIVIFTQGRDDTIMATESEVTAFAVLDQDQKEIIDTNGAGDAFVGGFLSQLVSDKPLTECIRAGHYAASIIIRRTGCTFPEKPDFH

For `Cn1c(=O)n(-c2ccc(C(C)(C)C#N)cc2)c2c3cc(-c4cnc5ccccc5c4)ccc3ncc21` [DACTOLISIB], the Kd (in assay [1]; in assay [2]; in assay [3]; in [4]; on Adenosine kinase; at Glycine--tRNA ligase) was > 30 µM (inactive) in each case. Further, the Kd (in assay [5]; on Midasin) was > 30 µM (inactive) each time.
`O=C(O)c1ccc2c(c1)nc(Nc1cccc(Cl)c1)c1ccncc12` [SILMITASERTIB]: the Kd is > 30 µM (inactive) in assay [1]; > 30 µM (inactive) in assay [2]; > 30 µM (inactive) in assay [3]; 5.92 µM (active) in [4]; > 30 µM (inactive) at Adenosine kinase; > 30 µM (inactive) at Glycine--tRNA ligase. Moreover, the Kd (in assay [5]; in assay [6]; at Midasin) was > 30 µM (inactive) in each case.
As for `C[C@@]1(C(=O)Nc2ccc(F)nc2)CCCN1c1nc(Nc2cc(C3CC3)n[nH]2)c2cccn2n1` [BMS-754807], the Kd at Adenosine kinase, on Glycine--tRNA ligase and on Midasin was > 30 µM (inactive) throughout.
`c1cc(OCCN2CCCCC2)cc(-c2n[nH]c3ccc(-c4nc[nH]n4)cc23)c1` [CC-401]: the Kd (in [1]; in assay [2]; in assay [3]; in assay [4]; on Adenosine kinase; on Glycine--tRNA ligase) was > 30 µM (inactive) each time. Further, the Kd (in assay [5]; in [6]; on Midasin) was > 30 µM (inactive) throughout.
For the compound `O=S(=O)(c1cccc2c(O)nccc12)N1CCCNCC1` [HYDROXYFASUDIL], the Kd (in assay [1]; in assay [2]; in [3]; in [4]; in assay [7]; at Adenosine kinase) was > 30 µM (inactive) in each case. The Kd at Glycine--tRNA ligase and on Midasin was > 30 µM (inactive) in each case.
In the case of `CN(c1ncccc1CNc1nc(Nc2ccc3c(c2)CC(=O)N3)ncc1C(F)(F)F)S(C)(=O)=O` [PF-00562271], the Kd in assay [1] is 1.47 µM; in assay [2], > 30 µM (inactive); in assay [4], > 30 µM (inactive); on Adenosine kinase, > 30 µM (inactive); at Glycine--tRNA ligase it was > 30 µM (inactive); in assay [5], > 30 µM (inactive). Further, the Kd on Midasin is > 30 µM (inactive).
As to `COc1cc2c(Oc3ccc4[nH]c(C)cc4c3F)ncnc2cc1OCCCN1CCCC1` [CEDIRANIB], the Kd on Adenosine kinase, on Glycine--tRNA ligase and at Midasin was > 30 µM (inactive) in each case.
For the compound `CCN1CCN(Cc2ccc(Nc3ncc(F)c(-c4cc(F)c5nc(C)n(C(C)C)c5c4)n3)nc2)CC1` [ABEMACICLIB], the Kd (in assay [1]; in assay [2]; in assay [3]; in assay [4]; at Adenosine kinase; on Glycine--tRNA ligase) was > 30 µM (inactive) in each case. Further, the Kd (in assay [5]; in assay [6]; on Midasin) was > 30 µM (inactive) throughout.
With `Cn1cnc2c(F)c(Nc3ccc(Br)cc3Cl)c(C(=O)NOCCO)cc21` [SELUMETINIB], the Kd on Adenosine kinase, at Glycine--tRNA ligase and on Midasin was > 30 µM (inactive) each time.
For the compound `COc1cc2c(N3CCN(C(=O)Nc4ccc(OC(C)C)cc4)CC3)ncnc2cc1OCCCN1CCCCC1` [TANDUTINIB], the Kd on Adenosine kinase, at Glycine--tRNA ligase and on Midasin was > 30 µM (inactive) throughout.
In the case of `CCN(CCCOc1ccc2c(Nc3cc(CC(=O)Nc4cccc(F)c4)n[nH]3)ncnc2c1)CCOP(=O)(O)O` [BARASERTIB], the Kd (in assay [1]; in assay [2]; in assay [3]; in assay [4]; at Adenosine kinase; on Glycine--tRNA ligase) was > 30 µM (inactive) each time. For the same compound, the Kd (in assay [5]; on Midasin) was > 30 µM (inactive) in each case.
With `COCCN1CCN(Cc2ccc(-c3n[nH]c4c3C(=O)c3c(NC(=O)NN5CCOCC5)cccc3-4)cc2)CC1` [RGB-286638], the Kd (in [1]; in assay [2]; in assay [3]; in assay [4]; on Adenosine kinase; at Glycine--tRNA ligase) was > 30 µM (inactive) throughout. Moreover, the Kd (in assay [5]; in [6]; on Midasin) was > 30 µM (inactive) each time.
For the compound `CC1(C)CNc2cc(NC(=O)c3cccnc3NCc3ccncc3)ccc21` [MOTESANIB], the Kd at Adenosine kinase, at Glycine--tRNA ligase and on Midasin was > 30 µM (inactive) in each case.
For `NC[C@@](O)(c1ccc(Cl)cc1)c1ccc(-c2cn[nH]c2)cc1` [AT-13148], the Kd (in assay [1]; in assay [2]; in assay [3]; in assay [4]; on Adenosine kinase; on Glycine--tRNA ligase) was > 30 µM (inactive) in each case. The Kd (in assay [5]; in assay [6]; on Midasin) was > 30 µM (inactive) throughout.
Take `CN(C)C/C=C/C(=O)Nc1cc2c(Nc3ccc(F)c(Cl)c3)ncnc2cc1O[C@H]1CCOC1` [AFATINIB]: the Kd on Adenosine kinase is 3.49 µM (active); at Glycine--tRNA ligase it was > 30 µM (inactive); at Midasin, > 30 µM (inactive).
Take `C[C@]1(O)C[C@@H](c2nc(-c3ccc4ccc(-c5ccccc5)nc4c3)c3c(N)nccn32)C1` [LINSITINIB]: the Kd (in assay [1]; in [4]; at Adenosine kinase; on Glycine--tRNA ligase; in assay [5]; on Midasin) was > 30 µM (inactive) in each case.
Consider `O=C(NOC[C@H](O)CO)c1ccc(F)c(F)c1Nc1ccc(I)cc1F` [MIRDAMETINIB], for which the Kd (in assay [1]; in assay [2]; in [3]; in assay [4]; in [7]; at Adenosine kinase) was > 30 µM (inactive) throughout. The Kd (at Glycine--tRNA ligase; in assay [6]) was > 30 µM (inactive) throughout.

In general, Kd refers to a measure of binding affinity in units of concentration.
